Key:
sGC α1/β1 heterodimer = sGC α1/β1 heterodimer (Homo sapiens (Human), UniProt Q02108+Q02153); experiment: Cell-based sGC functional assay (cyclic GMP assay for sGC activator: CASA assay); parameters: % Activation: concentration or dose not given beside the values; settings: CHO-K1/sGC cells; for Emax: CHO-K1, activity expressed as percentage of compound A (standard), read-out: % Activation; for EC50: inflection point, 4P fit, read-out: IP; for % Activation: activity expressed as percentage of compound A (standard)
How it was run: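 CHO-K1 cells stably expressing human sGC α1/β1 were pre-incubated 30 min at 25° C with or without 1 μM DETA-NO, then exposed to compound for 1 hr at 37° C with 0.5 mM IBMX and 2.5% DMSO final. Intracellular cGMP was measured by HTRF, expressed as % of reference sGC-HDA maximum; inflection point and maximum fold induction came from 4-parameter fits.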

[1] = molecular target: human recombinant sGC enzyme (Homo sapiens (Human), UniProt Q02108+Q02153); experiment: Size Exclusion Chromatography (SEC) competition binding assay using [3H] Ex-77B as the radioligand; settings: [3H] Ex-77B radioligand, 24 hours at 37° C.
Experimental: Binding Assay: The binding potencies of sGC compounds to the human recombinant sGC enzyme were determined in a Size Exclusion Chromatography (SEC) competition binding assay using [^3H] Ex-77B as the radioligand. [^3H] Ex-77B was prepared using a standardardized tritium exchange procedure. The parent (non-labeled) molecule was first iodinated then a Pd-catalyzed iodine to tritium exchange provided the labeled compound. […] Assays were conducted in 96-well plates in a total volume of 200 μL. […] Non-specific binding was defined by competition with 1 μM of Ex-77B. After the incubation period, the binding mixtures were loaded onto the gel-filtration plate (ThermoFischer Cat. No. 89808) pre-equilibrated with binding buffer and spun at 1000×g for 3 min at 4° C. on a Bench top centrifuge. The collected eluates in White Frame Clear Well Isoplates (Perkin Elmer Cat #6005040) received 100 μl of UltimaGold scintillation cocktail. The sealed plates were shaken vigorously and span, and counted after 6 hours with a Wallac Microbeta TriLux 1450 LSC & Luminescence Counter (Perkin Elmer). Data from competition experiments were analyzed to determine Ki values using one site fit Ki equation.

`CC1(c2nc(C[C@@H](N)C(=O)O)co2)C(=O)Nc2nc(-c3nn(Cc4ccccc4F)c4cc(Cl)ccc34)nc(N)c21` (single isomer, unassigned) [Example 172A, 3-(2-{4-amino-2-[6-chloro-1-(2-fluorobenzyl)-1H-indazol-3-yl]-5-methyl-6-oxo-6,7-dihydro-5H-pyrrolo[2,3-d]pyrimidin-5-yl}-1,3-oxazol-4-yl)-D-alanine] was tested, and the Emax (sGC α1/β1 heterodimer) was 92.7%, the EC50 (sGC α1/β1 heterodimer) was 1030 nM and the Ki [1] was 0.098 nM.

Compound `Cc1ccc(F)c(Cn2nc(-c3nc(N)c4c(n3)NC(=O)[C@@]4(C)c3nc(CC(C)(C)C(=O)O)cs3)c3ccc(Cl)cc32)c1` (single isomer, unassigned) [Example 214A] has an Emax (sGC α1/β1 heterodimer) of 116%, an EC50 (sGC α1/β1 heterodimer) of 320 nM and a Ki [1] of 0.267 nM.

`C[C@@]1(c2ccc(CCC(=O)O)cc2)C(=O)Nc2nc(-c3nn(Cc4ccc(F)cc4)c4ccccc34)nc(N)c21` (single isomer, unassigned) [Example 221B] gave an Emax (sGC α1/β1 heterodimer) of 92.1%, an EC50 (sGC α1/β1 heterodimer) of 150 nM and a Ki [1] of 0.163 nM.

In the case of `CC(C)(Cc1csc([C@]2(C)C(=O)Nc3nc(-c4nn(CC5CCCCO5)c5ccccc45)nc(N)c32)n1)C(=O)O` (single isomer, unassigned) [Example 229AA], the “% Activation” value (sGC α1/β1 heterodimer) is reported as 114.6%, the EC50 (sGC α1/β1 heterodimer) is reported as 770 nM and the Ki [1] is reported as 0.496 nM.

With `CC(C)(Cc1csc([C@]2(C)C(=O)Nc3nc(-c4nn(CC5CCCCO5)c5ccccc45)nc(N)c32)n1)C(=O)O` (single isomer, unassigned) [Example 229AB] the “% Activation” value (sGC α1/β1 heterodimer) was 72.9%, the EC50 (sGC α1/β1 heterodimer) was 179 nM and the Ki [1] was 0.238 nM.

With `CC(C)(Cc1coc(C2(C)C(=O)Nc3nc(-c4nn(CC5CCCCO5)c5ccccc45)nc(N)c32)n1)C(=O)O` (single isomer, unassigned) [Example 230AA, 3-{2-[4-amino-5-methyl-6-oxo-2-{1-[tetrahydro-2H-pyran-2-ylmethyl]-1H-indazol-3-yl}-6,7-dihydro-5H-pyrrolo[2,3-d]pyrimidin-5-yl]-1,3-oxazol-4-yl}-2,2-dimethyl-propanoic acid] the EC50 (sGC α1/β1 heterodimer) was 821 nM and the Ki [1] was 0.185 nM.

In the case of `CC1CCC(Cn2nc(-c3nc(N)c4c(n3)NC(=O)C4(C)c3nc(CC(C)(C)C(=O)O)co3)c3ccccc32)CC1` (single isomer, unassigned) [Example 231AA, 3-{2-[4-amino-5-methyl-2-{1-[-4-methylcyclo-hexylmethyl]-1H-indazol-3-yl}-6-oxo-6,7-dihydro-5H-pyrrolo[2,3-d]pyrimidin-5-yl]-1,3-oxazol-4-yl}-2,2-dimethyl-propanoic acid], the “% Activation” value (sGC α1/β1 heterodimer) is reported as 148.2%, the EC50 (sGC α1/β1 heterodimer) is reported as 113 nM and the Ki [1] is reported as 0.092 nM.

`CC1CCC(Cn2nc(-c3nc(N)c4c(n3)NC(=O)C4(C)c3nc(CC(C)(C)C(=O)O)co3)c3ccccc32)CC1` (single isomer, unassigned) [Example 231AB, 3-{2-[4-amino-5-methyl-2-{1-[4-methylcyclo-hexylmethyl]-1H-indazol-3-yl}-6-oxo-6,7-dihydro-5H-pyrrolo[2,3-d]pyrimidin-5-yl]-1,3-oxazol-4-yl}-2,2-dimethyl-propanoic acid] was tested, and the “% Activation” value (sGC α1/β1 heterodimer) was 127.9%, the EC50 (sGC α1/β1 heterodimer) was 529 nM and the Ki [1] was 0.087 nM.

In the case of `CC(C)(Cc1csc([C@]2(C)C(=O)Nc3nc(-c4nn(Cc5ccccc5F)c5ccccc45)nc(N)c32)n1)c1nn[nH]n1` (single isomer, unassigned) [Example 236A], the Emax (sGC α1/β1 heterodimer) is reported as 110%, the EC50 (sGC α1/β1 heterodimer) is reported as 478 nM and the Ki [1] is reported as 0.158 nM.

For `C[C@@]1(c2ccc(CCc3nn[nH]n3)cc2)C(=O)Nc2nc(-c3nn(CCC(F)(F)C(F)(F)F)c4cc(Cl)ccc34)nc(N)c21` (single isomer, unassigned) [Example 237B], the Emax (sGC α1/β1 heterodimer) was 93.3%, the EC50 (sGC α1/β1 heterodimer) was 5870 nM and the Ki [1] was 0.193 nM.

`CC1(c2ccc(CCc3nn[nH]n3)cn2)C(=O)Nc2nc(-c3nn(Cc4ccccc4F)c4ccccc34)nc(N)c21` (single isomer, unassigned) [Example 246A, 5-{5-[2-(2H-tetrazol-5-yl)ethyl]pyridin-2-yl}-4-amino-2-[1-(2-fluoro-benzyl)-1H-indazol-3-yl]-5-methyl-5,7-dihydro-6H-pyrrolo[2,3-d] pyrimidin-6-one] showed an EC50 (sGC α1/β1 heterodimer) of 7120 nM and a Ki [1] of 0.22 nM.

`CC1(c2ccc(CCc3nn[nH]n3)cn2)C(=O)Nc2nc(-c3nn(Cc4ccccc4F)c4cc(Cl)ccc34)nc(N)c21` (single isomer, unassigned) [Example 247A, 5-{5-[2-(2H-tetrazol-5-yl)ethyl]pyridin-2-yl}-4-amino-2-[6-chloro-1-(2-fluorobenzyl)-1H-indazol-3-yl]-5-methyl-5,7-dihydro-6H-pyrrolo[2,3-d] pyrimidin-6-one] showed an EC50 (sGC α1/β1 heterodimer) of 4020 nM and a Ki [1] of 0.242 nM.

Compound `CC1(c2cccc(-c3nn[nH]n3)c2)C(=O)Nc2nc(-c3nn(CCC(F)(F)C(F)(F)F)c4ncccc34)nc(N)c21` (single isomer, unassigned) [Example 252B, 4-amino-5-methyl-2-[1-(3,3,4,4,4-pentafluorobutyl)-1H-pyrazolo[3,4-b]pyridin-3-yl]-5-[3-(2H-tetrazol-5-yl)phenyl]-5,7-dihydro-6H-pyrrolo[2,3-d] pyrimidin-6-one] has an EC50 (sGC α1/β1 heterodimer) of 2460 nM and a Ki [1] of 0.292 nM.

`CC1(c2cccc(-c3nn[nH]n3)n2)C(=O)Nc2nc(-c3nn(Cc4ccccc4F)c4cc(Cl)ccc34)nc(N)c21` (single isomer, unassigned) [Example 253A, 5-[6-(2H-tetrazol-5-yl)pyridin-2-yl]-4-amino-2-[6-chloro-1-(2-fluorobenzyl)-1H-indazol-3-yl]-5-methyl-5,7-dihydro-6H-pyrrolo[2,3-d] pyrimidin-6-one] was tested, and the EC50 (sGC α1/β1 heterodimer) was 3630 nM and the Ki [1] was 0.146 nM.

`CC1(c2ccc(CCS(=O)(=O)O)cc2)C(=O)Nc2nc(-c3nn(Cc4ccccc4F)c4cc(Cl)ccc34)nc(N)c21` (single isomer, unassigned) [Example 258B, 2-(4-{4-Amino-2-[6-chloro-1-(2-fluorobenzyl)-1H-indazol-3-yl]-5-methyl-6-oxo-6,7-dihydro-5H-pyrrolo[2,3-d]pyrimidin-5-yl}phenyl)ethanesulfonic acid] showed an EC50 (sGC α1/β1 heterodimer) of 1730 nM and a Ki [1] of 0.08 nM.

`CC1(N2CCC(CCC(=O)O)C2)C(=O)Nc2nc(-c3nn(Cc4ccccc4F)c4cc(Cl)ccc34)nc(N)c21` (single isomer, unassigned) [Example 261C, 3-[1-{4-Amino-2-[6-chloro-1-(2-fluorobenzyl)-1H-indazol-3-yl]-5-methyl-6-oxo-6,7-dihydro-5H-pyrrolo[2,3-d]pyrimidin-5-yl}pyrrolidin-3-yl]propanoic acid] showed an EC50 (sGC α1/β1 heterodimer) of 293 nM and a Ki [1] of 0.074 nM.

In the case of `CC1(N2CCC(CCC(=O)O)C2)C(=O)Nc2nc(-c3nn(Cc4ccccc4F)c4cc(Cl)ccc34)nc(N)c21` (single isomer, unassigned) [Example 261D, 3-[1-{4-Amino-2-[6-chloro-1-(2-fluorobenzyl)-1H-indazol-3-yl]-5-methyl-6-oxo-6,7-dihydro-5H-pyrrolo[2,3-d]pyrimidin-5-yl}pyrrolidin-3-yl]propanoic acid], the “% Activation” value (sGC α1/β1 heterodimer) is reported as 103.8%, the EC50 (sGC α1/β1 heterodimer) is reported as 444 nM and the Ki [1] is reported as 0.187 nM.

In the case of `CC(C)(Cc1coc(C2(C)C(=O)Nc3nc(-c4nn(Cc5ccccc5F)c5ncccc45)nc(N)c32)n1)C(=O)O` (centres unmarked) [Example 1A, 3-(2-{4-Amino-2-[1-(2-fluorobenzyl)-1H-pyrazolo[3,4-b]pyridin-3-yl]-5-methyl-6-oxo-6,7-dihydro-5H-pyrrolo[2,3-d]pyrimidin-5-yl}oxazol-4-yl)-2,2-dimethylpropanoic acid], the Emax (sGC α1/β1 heterodimer) is reported as 120%, the EC50 (sGC α1/β1 heterodimer) is reported as 409 nM and the Ki [1] is reported as 0.047 nM.

For `CC1(c2ccc(CCC(=O)O)c(Br)c2)C(=O)Nc2nc(-c3nn(CCC(F)(F)C(F)(F)F)c4cc(Cl)ccc34)nc(N)c21` (centres unmarked) [Example 4B, 3-(4-{4-amino-2-[6-chloro-1-(3,3,4,4,4-pentafluoro-butyl)-1H-indazol-3-yl]-5-methyl-6-oxo-6,7-dihydro-5H-pyrrolo[2,3-d]pyrimidin-5-yl}-2-bromophenyl)propanoic acid], the Emax (sGC α1/β1 heterodimer) was 126%, the EC50 (sGC α1/β1 heterodimer) was 294 nM and the Ki [1] was 0.391 nM.

With `C[C@@]1(c2ccc(CCC(=O)O)cc2)C(=O)Nc2nc(-c3nn(CCCC(F)(F)F)c4ncccc34)nc(N)c21` [Example 15B, (S)-3-(4-{4-amino-5-methyl-6-oxo-2-[1-(4,4,4-trifluorobutyl)-1H-pyrazolo[3,4-b]pyridin-3-yl]-6,7-dihydro-5H-pyrrolo[2,3-d]pyrimidin-5-yl}phenyl)propanoic acid] the Emax (sGC α1/β1 heterodimer) was 95%, the EC50 (sGC α1/β1 heterodimer) was 1320 nM and the Ki [1] was 0.455 nM.

`CC(C)(Cc1ccc(C2(C)C(=O)Nc3nc(-c4nn(CCCC(F)(F)F)c5ncccc45)nc(N)c32)cc1)C(=O)O` (centres unmarked) [Example 16B, 3-(4-{4-amino-5-methyl-6-oxo-2-[1-(4,4,4-trifluorobutyl)-1H-pyrazolo[3,4-b]pyridin-3-yl]-6,7-dihydro-5H-pyrrolo[2,3-d]pyrimidin-5-yl}phenyl)-2,2-dimethylpropanoic acid] gave an Emax (sGC α1/β1 heterodimer) of 96%, an EC50 (sGC α1/β1 heterodimer) of 1470 nM and a Ki [1] of 1.14 nM.

Source: US10030027B2, “Soluble guanylate cyclase stimulators” (MERCK SHARP & DOHME CORP., priority 2015, dated 2018)
